# Data published in patent US8993562B2, “Imidazo[1,2-b]pyridazines, processes, uses, intermediates and compositions” (Ferrer Internacional, S.A., priority 2006, dated 2015).
# Experiments:
# male CD1 mice = assay: In vivo predictive sedation-hypnosis test (traveled distance); conditions: Mus musculus, ip, 0.5 h, traveled distance over 30 min versus control, read-out: % inhib motor activity; for inhibition in vivo at 0.98 µmol/kg: 0.98 μmol/kg intraperitoneal; for inhibition in vivo at 98 µmol/kg: 98.0 μmol/kg intraperitoneal
# Description: b) In Vivo Determination of Predictive Sedative-hypnotic Action
# The in vivo effects of these compounds were assessed by a predictive sedation-hypnosis test in mice (D. J. Sanger et al., Eur. J. Pharmacol., 313, 35-42, 1996; and G. Griebel et al., Psychopharmacology, 146, 205-213, 1999).
# Groups of 5-8 male CD1 mice, weighing 22-26 g at the time of test, were used. […] Compounds were suspended in 0.25% agar with one drop of Tween in a volume of 10 mL/kg. Control animals were given the vehicle alone. Using a Smart System (Panlab, S. L., Spain) the traveled distance in cm is recorded for each mouse at 5-minutes intervals during a period of 30 minutes after dosing. The inhibition percentage of traveled distance of treated animals versus control animals (the first 5 minutes were discarded) was calculated.
# α2-GABAA receptor = assay: Ligand-binding assay, radiolabeled flumazenil competition, spinal cord membranes; conditions: rat spinal cord membranes, radiolabeled flumazenil 1 nM
# Description: (§1) a) Ligand-binding Assays. Determination of the Affinity of Test Compounds for α1- and α2-GABAA Receptor
# (§2) Male Sprague-Dawley rats weighing 200-250 g at the time of experiment were used. After decapitation of the animal, the cerebellum (tissue that mostly contains α1-GABAA receptor) and spinal cord (tissue that mostly contains α2-GABAA receptor) were removed. The membranes were prepared according to the method by J. Lameh et al. (Prog. Neuro-Psychopharmacol. Biol. Psychiatry, 24, 979-991, 2000) and H. Noguchi et al. (Eur J Pharm, 434, 21-28, 2002) with slight modifications. Once the tissues weighed, they were suspended in 50 mM Tris.HCl (pH 7.4), 1:40 (v/v), or sucrose 0.32 M in the case of spinal cord, homogenized and then centrifuged at 20000 g for 10 minutes at 7° C. The resulting pellet was resuspended under the same conditions and centrifuged again. The pellet was finally resuspended on a minimum volume and kept at −80° C. overnight. A slight modification was used in the case of spinal cord at the first centrifugation step. Centrifugation speed was at 1000 g and the supernatant was collected instead of discarded as in cerebellum. Then, supernatant was centrifuged at 20000 g and resuspended twice more under the same conditions described above for cerebellum. On the next day, the process was repeated until the final pellet was resuspended at a ratio of 1:10 (v/v) in the case of cerebellum and at a ratio of 1:5 (v/v) in the case of spinal cord.
# (§3) Affinity was determined by competitive tests using radiolabeled flumazenil as ligand. The tests were performed according to the methods described by S. Arbilla et al. (Eur. J. Pharmacol., 130, 257-263, 1986); and Y. Wu et al. (Eur. J. Pharmacol., 278, 125-132, 1995) using 96-well microtiter plates. The membranes containing the study receptors, flumazenil (radiolabeling at a final concentration of 1 nM) and ascending concentrations of test compounds (in a total volume of 230 μl in 50 mM [pH 7.4] Tris.HCl buffer) were incubated. Simultaneously, the membranes were only incubated with the radiolabeled flumazenil (total binding, 100%) and in the presence of an elevated concentration of unradiolabeled flumazenil (non-specific binding, % estimation of radiolabeled ligand). The reactions started on adding the radiolabeled ligand followed by incubation for 60 minutes at 4° C. At the end of the incubation period, 200 μl of reaction were transferred to a multiscreen plate (Millipore) and filtered using a vacuum manifold and then washed three times with cold test buffer. The multiscreen plates were equipped with a GF/B filter that retained the membranes containing the receptors and the radiolabeled ligand which had been bound to the receptors. After washing, the plates were left till dry. Once dried, scintillation liquid was added and left under stirring overnight. The next day the plates were counted using a Perkin-Elmer Microbeta scintillation counter.
# (§4) For analysis of the results the percentage of specific binding for every concentration of test compound was calculated as follows: specific binding−(X−N/T−N)×100 where, X: amount of bound ligand for every concentration of compound. T: total binding, maximum amount bound to the radiolabeled ligand. N: non-specific binding, amount of radiolabeled ligand bound in a non-specific way irrespective of the receptor used.
# (§5) Every concentrations of compound were tested in triplicate and their mean values were used to determine the experimental values of % specific binding versus the concentration of compound. Affinity data are expressed as % inhibition at 10^−5M and 10^−7M concentrations.
# α1-GABAA receptor = assay: Ligand-binding assay, radiolabeled flumazenil competition, cerebellum membranes; conditions: rat cerebellum membranes, radiolabeled flumazenil 1 nM
# Description: as §1, §2, §3, §4, §5
Structure (SMILES),inhibition in vivo at 0.98 µmol/kg (male CD1 mice),inhibition in vivo at 98 µmol/kg (male CD1 mice),"% inhib 10^−5 M, affinity for the α2-subunit of the GABAA receptor (α2-GABAA receptor)","% inhib 10^−7 M, affinity for the α2-subunit of the GABAA receptor (α2-GABAA receptor)","% inhib 10^−5 M, affinity for the α1-subunit of the GABAA receptor (α1-GABAA receptor)","% inhib 10^−7 M, affinity for the α1-subunit of the GABAA receptor (α1-GABAA receptor)"
"CCCN(CCC)C(=O)Cc1c(-c2ccccc2)nc2ccc(OC)nn12 [Example 26, 2-(6-Methoxy-2-phenyl-imidazo[1,2-b]pyridazin-3-yl)-N,N-dipropyl-acetamide]",19.2%,91.5%,84.5%,27.4%,100.0%,73.5%
"CCCN(CCC)C(=O)Cc1c(-c2ccccc2)nc2ccc(C)nn12 [Example 35, 2-(6-Methyl-2-phenyl-imidazo[1,2-b]pyridazin-3-yl)-N,N-dipropyl-acetamide]",6.76%,80.6%,92.5%,57.9%,100.2%,97.5%
"CCCN(CCC)C(=O)Cc1c(-c2ccc(F)cc2)nc2ccc(OC)nn12 [Example 41, 2-[2-(4-Fluoro-phenyl)-6-methoxy-imidazo[1,2-b]pyridazin-3-yl]-N,N-dipropyl-acetamide]",15.7%,91.2%,85.3%,17.0%,99.8%,75.4%
"CCCN(CCC)C(=O)Cc1c(-c2ccc(F)cc2)nc2ccc(OCC)nn12 [Example 43, 2-[6-Ethoxy-2-(4-fluoro-phenyl)-imidazo[1,2-b]pyridazin-3-yl]-N,N-dipropyl-acetamide]",,95.7%,80.3%,20.1%,99.5%,49.9%
"COc1ccc2nc(-c3ccc(F)cc3)c(CC(=O)N3CCCCC3)n2n1 [Example 65, 2-[2-(4-Fluoro-phenyl)-6-methoxy-imidazo[1,2-b]pyridazin-3-yl]-1-piperidin-1-yl-ethanone]",,95.5%,78.5%,16.3%,99.5%,58.5%
"CCOc1ccc2nc(-c3ccc(F)cc3)c(CC(=O)N(CC)CC)n2n1 [Example 66, 2-[6-Ethoxy-2-(4-fluoro-phenyl)-imidazo[1,2-b]pyridazin-3-yl]-N,N-diethyl-acetamide]",,96%,79.4%,7.8%,98.3%,50.4%
"CCOc1ccc2nc(-c3ccc(F)cc3)c(CC(=O)N3CCCCC3)n2n1 [Example 67, 2-[6-Ethoxy-2-(4-fluoro-phenyl)-imidazo[1,2-b]pyridazin-3-yl]-1-piperidin-1-yl-ethanone]",,90.8%,83.7%,8.8%,98.9%,42.2%
"CCN(CC)C(=O)Cc1c(-c2ccc(OC)cc2)nc2ccc(C)nn12 [Example 70, N,N-Diethyl-2-[2-(4-methoxy-phenyl)-6-methyl-imidazo[1,2-b]pyridazin-3-yl]-acetamide]",,87%,80.3%,23.6%,99.9%,84.5%
"CCCN(CCC)C(=O)Cc1c(-c2ccc(OC)cc2)nc2ccc(C)nn12 [Example 71, 2-[2-(4-Methoxy-phenyl)-6-methyl-imidazo[1,2-b]pyridazin-3-yl]-N,N-dipropyl-acetamide]",,96%,88.5%,50.6%,100.2%,95.0%
"COc1ccc(-c2nc3ccc(OC)nn3c2CC(=O)N2CCCCC2)cc1 [Example 78, 2-[6-Methoxy-2-(4-methoxy-phenyl)-imidazo[1,2-b]pyridazin-3-yl]-1-piperidin-1-yl-ethanone]",,91.1%,,,98.3%,26.5%
"Cc1ccc(NC(=O)Cc2c(-c3ccc(C)cc3)nc3ccc(C)nn23)cc1 [Example 87, 2-(6-Methyl-2-p-tolyl-imidazo[1,2-b]pyridazin-3-yl)-N-p-tolyl-acetamide]",,90.7%,,,99.3%,57.2%
"Cc1ccc(-c2nc3ccc(C)nn3c2CC(=O)NC2CCCC2)cc1 [Example 91, N-Cyclopentyl-2-(6-methyl-2-p-tolyl-imidazo[1,2-b]pyridazin-3-yl)-acetamide]",,93%,,,99.1%,45.8%
"Cc1ccc(-c2nc3ccc(C)nn3c2CC(=O)NC2CC2)cc1 [Example 93, N-Cyclopropyl-2-(6-methyl-2-p-tolyl-imidazo[1,2-b]pyridazin-3-yl)-acetamide]",,93.2%,,,100.0%,78.2%
"Cc1ccc(-c2nc3ccc(C)nn3c2CC(=O)Nc2ccc3ccccc3n2)cc1 [Example 94, 2-(6-Methyl-2-p-tolyl-imidazo[1,2-b]pyridazin-3-yl)-N-quinolin-2-yl-acetamide]",,93.5%,,,100.1%,65.1%
"Cc1ccc(-c2nc3ccc(C)nn3c2CC(=O)NN2CCOCC2)cc1 [Example 105, 2-(6-Methyl-2-p-tolyl-imidazo[1,2-b]pyridazin-3-yl)-N-morpholin-4-yl-acetamide]",,94%,,,98.8%,56.0%
"Cc1ccc(-c2nc3ccc(C)nn3c2CC(=O)NN2CCCCC2)cc1 [Example 106, 2-(6-Methyl-2-p-tolyl-imidazo[1,2-b]pyridazin-3-yl)-N-piperidin-1-yl-acetamide]",,94%,,,99.5%,53.7%
